In ChEMBL document CHEMBL4613224, “Synthesis, in-vitro antiprotozoal activity and molecular docking study of isothiocyanate derivatives” (Bioorg Med Chem, 2020):
Activity calls are given as the source filed them. The calls are words filed in the database; no cut-off is given here.

Key:
Plasmodium falciparum [1] = experiment: Antiplasmodial activity against Plasmodium falciparum K1 assessed as reduction in parasite growth by [3H]-hypoxanthine incorporation assay; assay type: functional, organism-based
Plasmodium falciparum [2] = experiment: Antiplasmodial activity against Plasmodium falciparum NF54 measured after 24 hrs in presence of [3H] hypoxanthine by liquid scintillation counter analysis; assay type: functional, organism-based
Leishmania donovani [3] = experiment: Antileishmanial activity against Leishmania donovani MHOM-ET-67/L82 axenic amastigotes assessed as parasite growth inhibition at 2 to 10 ug/ml measured after 72 hrs by Alamar blue based inverted microscopy analysis relative to control; assay type: functional
L6 = experiment: Cytotoxicity against rat L6 cells assessed as reduction in cell viability measured after 72 hrs by Alamar blue based inverted microscopy analysis; settings: L6, 72 h, read-out: IC50
[4] = Selectivity index, ratio of IC50 for rat L6 cells assessed as reduction in cell viability measured after 72 hrs by Alamar blue based inverted microscopy analysis to IC50 for Leishmania donovani MHOM-ET-67/L82 axenic amastigotes assessed as parasite growth inhibition measured after 72 hrs by Alamar blue based inverted microscopy analysis; assay type: toxicity; settings: L6 cells, read-out: Ratio IC50
Leishmania donovani [5] = experiment: Potency index, ratio of miltefosine IC50 to test compound IC50 for antileishmanial activity against Leishmania donovani MHOM-ET-67/L82 axenic amastigotes assessed as parasite growth inhibition measured after 72 hrs by Alamar blue based inverted microscopy analysis; assay type: functional
[6] = Selectivity index, ratio of IC50 for rat L6 cells assessed as reduction in cell viability measured after 72 hrs by Alamar blue based inverted microscopy analysis to IC50 for bloodstream Trypanosoma brucei rhodesiense STIB900 assessed as parasite growth inhibition measured after 70 hrs by Alamar blue assay; assay type: toxicity; settings: read-out: Ratio IC50
[7] = test system: Trypanosoma brucei rhodesiense; experiment: Antitrypanosomal activity against bloodstream Trypanosoma brucei rhodesiense STIB900 assessed as parasite growth inhibition at 2 ug/ml measured after 70 hrs by Alamar blue assay relative to control; assay type: functional; settings: STIB900, 70 h
Trypanosoma cruzi = experiment: Antitrypanosomal activity against Trypanosoma cruzi Tulahuen C4 trypomastigotes infected in rat L6 cells assessed as parasite growth inhibition at 2 ug/ml measured after 96 hrs by inverted microscopy analysis relative to control; assay type: functional
[8] = Selectivity index, ratio of IC50 for rat L6 cells assessed as reduction in cell viability measured after 72 hrs by Alamar blue based inverted microscopy analysis to IC50 for Plasmodium falciparum NF54 measured after 24 hrs in presence of [3H] hypoxanthine by liquid scintillation counter analysis; assay type: toxicity; settings: read-out: Ratio IC50
[9] = test system: Trypanosoma brucei rhodesiense; experiment: Antitrypanosomal activity against bloodstream Trypanosoma brucei rhodesiense STIB900 assessed as parasite growth inhibition measured after 70 hrs by Alamar blue assay; assay type: functional, organism-based; settings: STIB900, 70 h
Leishmania donovani [10] = experiment: Antileishmanial activity against Leishmania donovani MHOM-ET-67/L82 axenic amastigotes assessed as parasite growth inhibition measured after 72 hrs by Alamar blue based inverted microscopy analysis; assay type: functional, organism-based; settings: MHOM-ET-67/L82, 72 h

**Q.** With `COc1ccc([C@H](O)[C@H]2c3c(cc4c(c3OC)OCO4)CCN2C)c(CO)c1OC` as the compound, how does the IC50 (Plasmodium falciparum [1]) read?
**A.** The IC50 was 8 µM.

**Q.** What does the source list for `C[C@@H](CCCN=C=S)[C@H]1CC[C@H]2[C@@H]3CC[C@@H]4C[C@H](O)CC[C@]4(C)[C@H]3C[C@H](O)[C@]12C`?
**A.** IC50 (Plasmodium falciparum [2]): 3.4 µM; inhibition (INH) (Leishmania donovani [3]): >90%; IC50 (L6): 3.6 µM; selectivity ratio at 72 h [4]: 9.9; Ratio IC50 (Leishmania donovani [5]): 2; selectivity ratio at 72 h [6]: 3.3; inhibition at 2 µg/mL [7]: > 50%; inhibition (Trypanosoma cruzi): inactive; selectivity ratio at 72 h [8]: 1.1; IC50 [9]: 1.1 µM; IC50 (Leishmania donovani [10]): 0.4 µM
